# Source: article PMC3814675, “Structures of B-Lymphotropic Polyomavirus VP1 in Complex with Oligosaccharide Ligands” (PLoS Pathogens, 2013)
# Legend:
# [1] = target: T1, LPyV VP1 (B-lymphotropic polyomavirus, UniProt P04010); test: X-ray crystal structure (soaked crystals), […] Å; assay type: binding; settings: 40 mM ligand soak 45 min, 0.1 M sodium acetate pH 4.8, 0.2 M CaCl2; outer-surface sialic acid cleft between two VP1 monomers; also bound on glycan array as lipid-linked probe
# T1 construct: VP1 residues 28-301 (27 N-terminal and 66 C-terminal residues truncated), pET15b, E. coli BL21(DE3); His-tag cut with thrombin for crystals leaving GSHM (tag kept for glycan array); unassembled pentamer
# T1 sequence (P04010 29-302): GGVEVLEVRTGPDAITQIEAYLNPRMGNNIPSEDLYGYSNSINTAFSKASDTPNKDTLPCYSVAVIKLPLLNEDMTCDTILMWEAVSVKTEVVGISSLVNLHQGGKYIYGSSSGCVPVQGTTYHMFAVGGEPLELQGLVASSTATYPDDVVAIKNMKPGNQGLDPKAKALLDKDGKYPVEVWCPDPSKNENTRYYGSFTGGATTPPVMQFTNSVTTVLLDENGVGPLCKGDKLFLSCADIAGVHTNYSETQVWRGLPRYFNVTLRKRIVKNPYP
# [2] = target: T1, LPyV VP1; test: X-ray crystal structure (soaked crystals), […] Å; assay type: binding; settings: 40 mM ligand soak 10 min, 0.1 M sodium acetate pH 4.8, 0.2 M CaCl2; same cleft as 3SL; also bound on glycan array as lipid-linked probe
# [3] = target: the molecule itself; test: crystal structure; unliganded LPyV VP1 and crystals soaked with 3SL or 3SLN; vapor diffusion against isopropanol, 0.1 M sodium acetate pH 4.8, 0.2 M calcium chloride; two VP1 pentamers in the asymmetric unit
molecule,measurement,setting,value
"CC(=O)N[C@H]1[C@H]([C@H](O)[C@H](O)CO)O[C@@](O[C@H]2[C@@H](O)[C@@H](CO)O[C@@H](O[C@H]3[C@H](O)[C@@H](O)C(O)O[C@@H]3CO)[C@@H]2O)(C(=O)O)C[C@@H]1O (stereo partly drawn) [3SL, Neu5Ac-α2,3-Gal-β1,4-Glc]","X-ray crystal structure (soaked crystals), 1.48 Å",[1],"entry codes 4MBX (unliganded LPyV VP1), 4MBY (complex with 3SL) and 4MBZ (complex with 3SLN)"
"CC(=O)N[C@H]1[C@H]([C@H](O)[C@H](O)CO)O[C@@](O[C@H]2[C@@H](O)[C@@H](CO)O[C@@H](O[C@H]3[C@H](O)[C@@H](NC(C)=O)C(O)O[C@@H]3CO)[C@@H]2O)(C(=O)O)C[C@@H]1O (stereo partly drawn) [3SLN, Neu5Ac-α2,3-Gal-β1,4-GlcNAc]","X-ray crystal structure (soaked crystals), 1.75 Å",[2],4MBY (complex with 3SL) and 4MBZ (complex with 3SLN)
"B-Lymphotropic Polyomavirus (LPyV) VP1 pentamer, amino acids 28-301 (domain or fragment, non-native amino acids left at the N-terminus after thrombin cleavage of the His-tag; Major capsid protein VP1 of B-Lymphotropic Polyomavirus, K38 strain, amino acids 28-301 (truncations of 27 and 66 residues at the N- and C-termini); Cannot assemble into capsids because of the truncations; The form used for crystals had the His-tag cleaved; the glycan array used the His-tagged form (no …)) GSHMKGGVEVLEVRTGPDAITQIEAYLNPRMGNNIPSEDLYGYSNSINTAFSKASDTPNKDTLPCYSVAVIKLPLLNEDMTCDTILMWEAVSVKTEVVGISSLVNLHQGGKYIYGSSSGCVPVQGTTYHMFAVGGEPLELQGLVASSTATYPDDVVAIKNMKPGNQGLDPKAKALLDKDGKYPVEVWCPDPSKNENTRYYGSFTGGATTPPVMQFTNSVTTVLLDENGVGPLCKGDKLFLSCADIAGVHTNYSETQVWRGLPRYFNVTLRKRIVKNPY",stoichiometry N,[3],5
